In ChEMBL document CHEMBL1201862, “PubChem BioAssay data set” (2004):
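Compound exposure: 48 hours, 5 concentrations, 96-well plates. GI50 is the concentration that inhibits growth by half.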 The source made the active and inactive calls. Rule as the data show it: active = GI50 up to about 1.1 µM and inactive = higher.

What was measured:
Experiment in all cases: growth of human tumour cells (NCI), 48 h
HOP-92 = tested on: HOP-92
U-251 = tested on: U-251
NCI-H522 = tested on: NCI-H522
MCF7 = tested on: MCF7
LOX IMVI = tested on: LOX IMVI
SR = tested on: SR
MDA-MB-231 = tested on: MDA-MB-231
CCRF-CEM = tested on: CCRF-CEM
Malme-3M = tested on: Malme-3M
OVCAR-4 = tested on: OVCAR-4
HCC 2998 = tested on: HCC 2998
NCI-H23 = tested on: NCI-H23
SF-268 = tested on: SF-268
IGROV-1 = tested on: IGROV-1
ACHN = tested on: ACHN
HT-29 = tested on: HT-29
K562 = tested on: K562
SF-295 = tested on: SF-295
OVCAR-8 = tested on: OVCAR-8
SK-OV-3 = tested on: SK-OV-3

Row | SMILES | GI50 (HOP-92) | GI50 (U-251) | GI50 (NCI-H522) | GI50 (MCF7) | GI50 (LOX IMVI) | GI50 (SR) | GI50 (MDA-MB-231) | GI50 (CCRF-CEM) | GI50 (Malme-3M) | GI50 (OVCAR-4) | GI50 (HCC 2998) | GI50 (NCI-H23) | GI50 (SF-268) | GI50 (IGROV-1) | GI50 (ACHN) | GI50 (HT-29) | GI50 (K562) | GI50 (SF-295) | GI50 (OVCAR-8) | GI50 (SK-OV-3)
1 | Oc1nc2ccccc2c(O)c1Cc1ccccc1 | > 100 µM (inactive) | > 100 µM (inactive) | > 100 µM (inactive) | > 100 µM (inactive) | > 100 µM (inactive) | > 100 µM (inactive) | > 100 µM (inactive) | > 100 µM (inactive) | > 100 µM (inactive) | > 100 µM (inactive) | > 100 µM (inactive) | > 100 µM (inactive) | > 100 µM (inactive) | > 100 µM (inactive) | > 100 µM (inactive) | > 100 µM (inactive) | > 100 µM (inactive) | > 100 µM (inactive) | > 100 µM (inactive) | 
2 | Nc1ncc(Br)c(NCC2(CO)CCC2)n1 | 56.1 µM (inactive) | > 100 µM (inactive) | 92 µM (inactive) | > 100 µM (inactive) | > 100 µM (inactive) | > 100 µM (inactive) | > 100 µM (inactive) | > 100 µM (inactive) | > 100 µM (inactive) | > 100 µM (inactive) | > 100 µM (inactive) | > 100 µM (inactive) | > 100 µM (inactive) | > 100 µM (inactive) | > 100 µM (inactive) | > 100 µM (inactive) | > 100 µM (inactive) | 97.1 µM (inactive) | > 100 µM (inactive) | 
3 | CC(N1CCOCC1)C(O)(c1ccccc1)c1ccccn1 (stereo not drawn) | > 100 µM (inactive) | > 100 µM (inactive) | > 100 µM (inactive) | 41 µM (inactive) | > 100 µM (inactive) | > 100 µM (inactive) | > 100 µM (inactive) |  | > 100 µM (inactive) | > 100 µM (inactive) | 0.0192 µM (active) | > 100 µM (inactive) | > 100 µM (inactive) | > 100 µM (inactive) | 52.8 µM (inactive) | > 100 µM (inactive) | > 100 µM (inactive) | > 100 µM (inactive) | > 100 µM (inactive) | > 100 µM (inactive)
4 | CN1C(=O)C(C(N)=O)C2CC1(C)Oc1ccccc12 (stereo not drawn) | > 100 µM (inactive) | > 100 µM (inactive) | > 100 µM (inactive) | > 100 µM (inactive) | > 100 µM (inactive) | > 100 µM (inactive) | > 100 µM (inactive) | > 100 µM (inactive) | > 100 µM (inactive) | > 100 µM (inactive) | > 100 µM (inactive) | > 100 µM (inactive) | > 100 µM (inactive) | > 100 µM (inactive) | > 100 µM (inactive) | > 100 µM (inactive) | > 100 µM (inactive) |  | > 100 µM (inactive) | > 100 µM (inactive)
5 | CSc1nc(NC(C)C)c2c(n1)Sc1nc3ccccc3n1N=C2 | 11.1 µM (inactive) | 11.5 µM (inactive) | 22.9 µM (inactive) | 20.3 µM (inactive) | 10.7 µM (inactive) | 13.2 µM (inactive) | 11.1 µM (inactive) | 6.58 µM (inactive) | 9.18 µM (inactive) | 3.85 µM (inactive) | 3.65 µM (inactive) | 11.7 µM (inactive) | 25.7 µM (inactive) | 16.9 µM (inactive) | 5.83 µM (inactive) | 21 µM (inactive) | 50.9 µM (inactive) | 6.03 µM (inactive) | 4.92 µM (inactive) | 11.1 µM (inactive)
6 | CSC(SC)=C(C#N)C(=O)Nc1ccc(C)cc1 | 15.5 µM (inactive) | > 100 µM (inactive) | 28.9 µM (inactive) | 71.9 µM (inactive) | > 100 µM (inactive) | 63 µM (inactive) | > 100 µM (inactive) | 34.6 µM (inactive) | > 100 µM (inactive) | > 100 µM (inactive) | > 100 µM (inactive) | > 100 µM (inactive) | > 100 µM (inactive) | 61.4 µM (inactive) | > 100 µM (inactive) | > 100 µM (inactive) | 75.3 µM (inactive) | > 100 µM (inactive) |  | > 100 µM (inactive)
7 | NC(=S)Nc1ccc2c(c1)oc1ccccc12 | > 100 µM (inactive) | > 100 µM (inactive) | 7.57 µM (inactive) | 8.73 µM (inactive) | > 100 µM (inactive) | > 100 µM (inactive) | > 100 µM (inactive) | 9.91 µM (inactive) | 8.11 µM (inactive) | > 100 µM (inactive) | > 100 µM (inactive) | > 83.6 µM (inactive) | > 100 µM (inactive) | > 100 µM (inactive) | > 100 µM (inactive) | > 100 µM (inactive) | > 100 µM (inactive) | > 100 µM (inactive) | > 100 µM (inactive) | > 100 µM (inactive)
8 | CNC(=O)N(CCC#N)CCCN(C(=O)NC)c1ccccc1 | > 100 µM (inactive) | > 100 µM (inactive) | > 100 µM (inactive) | > 100 µM (inactive) | > 100 µM (inactive) | > 100 µM (inactive) | > 100 µM (inactive) | > 100 µM (inactive) | 51.4 µM (inactive) | > 100 µM (inactive) | > 100 µM (inactive) | > 100 µM (inactive) |  | > 100 µM (inactive) | > 100 µM (inactive) | > 100 µM (inactive) | > 100 µM (inactive) | > 100 µM (inactive) | > 100 µM (inactive) | > 100 µM (inactive)
9 | CC1=C(Cl)C[C@@H](/C(C)=C\Cl)O[C@@]1(O)C(Br)Br | 25.2 µM (inactive) | 32.8 µM (inactive) | 18.9 µM (inactive) | 18.2 µM (inactive) | 31.7 µM (inactive) | 19.5 µM (inactive) | 19.5 µM (inactive) | 6.27 µM (inactive) | 24.5 µM (inactive) | 43 µM (inactive) | 33.3 µM (inactive) | 41.9 µM (inactive) | 32.7 µM (inactive) | 34.3 µM (inactive) | 30.5 µM (inactive) | 32.1 µM (inactive) | 17.3 µM (inactive) | > 100 µM (inactive) | 32.1 µM (inactive) | > 100 µM (inactive)
10 | CN1CSC(=S)N(c2c3ccccc3nc3ccc(Br)cc23)C1 | 16.3 µM (inactive) | 7.13 µM (inactive) | 4.4 µM (inactive) | 5.83 µM (inactive) | 7.83 µM (inactive) | 0.796 µM (active) | 8.45 µM (inactive) | 4.08 µM (inactive) | 16.7 µM (inactive) | 7.11 µM (inactive) | 2.79 µM (inactive) | 10 µM (inactive) | 9.64 µM (inactive) | 10.8 µM (inactive) | 6.59 µM (inactive) | 5.42 µM (inactive) | 2.32 µM (inactive) | 6.7 µM (inactive) | 7.93 µM (inactive) | 12.9 µM (inactive)
11 | COc1ccc(C(O)CC(O)(C(F)(F)F)C(F)(F)F)cc1 (stereo not drawn) | 15.8 µM (inactive) | 37.4 µM (inactive) | 32.1 µM (inactive) | 61.4 µM (inactive) | 18.2 µM (inactive) | 22.9 µM (inactive) | 20 µM (inactive) | 20.8 µM (inactive) | 16.8 µM (inactive) | 32.6 µM (inactive) | 38 µM (inactive) | 19.5 µM (inactive) | 39.9 µM (inactive) | 26.8 µM (inactive) | 29.6 µM (inactive) | 28.8 µM (inactive) | 25.6 µM (inactive) | 29.6 µM (inactive) | 23 µM (inactive) | 54.1 µM (inactive)
12 | COc1ccc(CC2c3cc(OC)c(OC)c(OC)c3CC[N+]2(C)C)cc1Oc1ccc(CC2c3cc4c(c(OC)c3CCN2C)OCO4)cc1 (stereo not drawn) | > 100 µM (inactive) | > 100 µM (inactive) | 97.7 µM (inactive) | > 100 µM (inactive) | > 100 µM (inactive) | 52.1 µM (inactive) | > 100 µM (inactive) |  | > 100 µM (inactive) | > 100 µM (inactive) | > 100 µM (inactive) | > 100 µM (inactive) | > 100 µM (inactive) | > 100 µM (inactive) | > 100 µM (inactive) | > 100 µM (inactive) | 57.5 µM (inactive) | > 100 µM (inactive) | > 100 µM (inactive) | > 100 µM (inactive)
13 | O=C(NC(=S)Nc1ccc2c(c1)Sc1ccccc1O2)c1ccccc1 | 24.2 µM (inactive) | 20.7 µM (inactive) | 31.8 µM (inactive) | 34.2 µM (inactive) | 39.1 µM (inactive) | 3.67 µM (inactive) | 21.6 µM (inactive) | 23 µM (inactive) | 23.1 µM (inactive) | 19.8 µM (inactive) | 7.46 µM (inactive) | 30.8 µM (inactive) | 41.4 µM (inactive) | 29.6 µM (inactive) | 31.3 µM (inactive) | 35.4 µM (inactive) | 6.27 µM (inactive) | 24.3 µM (inactive) | 34.4 µM (inactive) | 29 µM (inactive)
14 | O=C(CCC(NC(=O)OCc1ccccc1)C(=O)OCc1ccccc1)Nc1ccc(OCc2ccccc2)cc1 (stereo not drawn) | > 31.6 µM (inactive) | 17.1 µM (inactive) | > 100 µM (inactive) | 13 µM (inactive) | > 31.6 µM (inactive) | 27.3 µM (inactive) | 15.3 µM (inactive) | 21.8 µM (inactive) | > 31.6 µM (inactive) | 25.2 µM (inactive) | > 31.6 µM (inactive) | 16.3 µM (inactive) | 26.4 µM (inactive) | > 31.6 µM (inactive) | 29.6 µM (inactive) | 26.6 µM (inactive) | 27.2 µM (inactive) | > 31.6 µM (inactive) | 14.1 µM (inactive) | > 31.6 µM (inactive)
